Experimental data taken from PubChem BioAssay AID1552 (Sanford-Burnham Center for Chemical Genomics, 2009).
Activity calls are given as the source filed them. No rule for the calls is given here.

molecular target: Ubiquitin-conjugating enzyme E2 N (Homo sapiens) (UniProt P61088); assay: UBE2N binders by NMR, biophysical, purified protein (AID 1552); conditions: NMR binding to purified UBE2N
Sequence (P61088 whole entry, looked up): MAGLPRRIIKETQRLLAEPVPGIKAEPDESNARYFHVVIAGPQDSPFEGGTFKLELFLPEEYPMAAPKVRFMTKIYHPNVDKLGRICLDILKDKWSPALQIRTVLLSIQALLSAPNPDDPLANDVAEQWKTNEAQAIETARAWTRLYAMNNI

**Q.** For `Cc1c(C)[n+]([O-])c(-c2ccc([N+](=O)[O-])cc2)n1O`, which Kd is on record?
**A.** > 4 mM (inactive)

**Q.** With `O=C(Nc1ccc2c(c1)CCC2)c1cnccn1` as the compound, how does the Kd read?
**A.** > 4 mM (inactive)

**Q.** How did the Kd turn out when `O=c1[nH]c2sc3c(c2c2ncnn12)CCCC3` was run?
**A.** > 4 mM (inactive)

**Q.** With `O=C(CSc1ncccn1)Nc1nccs1` as the compound, how does the Kd read?
**A.** > 4 mM (inactive)

**Q.** With `CNc1nnc(Cc2csc(N)n2)s1` as the compound, how does the Kd read?
**A.** > 4 mM (inactive)

**Q.** With `C=C1[C@H]2CC[C@@]3(C)[C@H](c4ccoc4)OC(=O)C[C@]13O[C@H]1C[C@H](O)C(C)(C)[C@H](CC(=O)OC)[C@]12C` as the compound, how does the Kd read?
**A.** > 4 mM (inactive)

**Q.** With `Nc1nnc(C(F)(F)F)s1` as the compound, how does the Kd read?
**A.** > 4 mM (inactive)

**Q.** For `CC[C@H](CCC(C)[C@H]1CCC2C3CCC4C[C@@H](O)CC[C@]4(C)C3CC[C@@]21C)C(C)C` (some centres undefined), which Kd is on record?
**A.** > 4 mM (inactive)

**Q.** How did the Kd turn out when `O=C(Nc1ccc2c(c1)OCO2)c1c(F)cccc1F` was run?
**A.** > 4 mM (inactive)

**Q.** With `C=C[C@H]1CN2CC[C@H]1C[C@@H]2[C@H](O)c1ccnc2ccccc12` as the compound, how does the Kd read?
**A.** > 4 mM (inactive)

**Q.** `Cc1nc(SCC#N)c2c3c(sc2n1)CCC3` was tested. Which Kd did it give?
**A.** > 4 mM (inactive)

**Q.** How did the Kd turn out when `Cn1cc(C(=O)N/N=C/c2ccccc2)ccc1=O` was run?
**A.** > 4 mM (inactive)

**Q.** How did the Kd turn out when `COc1ccccc1-c1n[nH]c(=O)o1` was run?
**A.** > 4 mM (inactive)

**Q.** Which Kd does the source give for `O=c1[nH]nc(Cc2ccncc2)c2ccccc12` here?
**A.** > 4 mM (inactive)

**Q.** `Cc1noc(-c2ccccc2)c1CO` was tested. Which Kd did it give?
**A.** > 4 mM (inactive)

**Q.** With `COc1ccc2c(c1)c1n[nH]c(=S)nc1n2C` as the compound, how does the Kd read?
**A.** > 4 mM (inactive)

**Q.** `Cn1nnc2c(N3CCC(C(N)=O)CC3)ncnc21` was tested. Which Kd did it give?
**A.** > 4 mM (inactive)

**Q.** For `CC1=CCc2c(cc3oc(C)cc(=O)c3c2O)OC1`, which Kd is on record?
**A.** > 4 mM (inactive)

**Q.** Which Kd does the source give for `Nc1cccc(-n2cccc2)c1` here?
**A.** > 4 mM (inactive)

**Q.** Which Kd does the source give for `CC(C)(C)P(=O)(O)c1ccccc1` here?
**A.** > 4 mM (inactive)

**Q.** `NC(=O)c1ccc(SCC(=O)O)c([N+](=O)[O-])c1` was tested. Which Kd did it give?
**A.** > 4 mM (inactive)

**Q.** `COC(=O)c1scc(C)c1N` was tested. Which Kd did it give?
**A.** > 4 mM (inactive)

**Q.** With `CS(=O)(=O)N1CCN(c2ncccn2)CC1` as the compound, how does the Kd read?
**A.** > 4 mM (inactive)

**Q.** For `CS(=O)(=O)N1CCC(C(=O)NC2CCCC2)CC1`, which Kd is on record?
**A.** > 4 mM (inactive)

**Q.** `COc1cc(OC)c2ccc(=O)oc2c1` was tested. Which Kd did it give?
**A.** > 4 mM (inactive)

**Q.** `O=C1C2C3C=CC(C3)C2C(=O)N1c1ccccn1` (centres undefined) was tested. Which Kd did it give?
**A.** > 4 mM (inactive)

**Q.** How did the Kd turn out when `CC[C@H](/C=C/C(C)C1CCC2C3CCC4=CC(=O)CC[C@]4(C)C3CC[C@]12C)C(C)C` (some centres undefined) was run?
**A.** > 4 mM (inactive)

**Q.** `O=C(O)/C=C/C=C/c1ccccc1` was tested. Which Kd did it give?
**A.** > 4 mM (inactive)

**Q.** Which Kd does the source give for `Cc1nn(C)c(N2CCOCC2)c1N` here?
**A.** > 4 mM (inactive)

**Q.** With `CCOC(=O)c1cnc2sccn2c1=O` as the compound, how does the Kd read?
**A.** > 4 mM (inactive)

**Q.** With `O=C(O)c1ccc2c(c1)OCO2` as the compound, how does the Kd read?
**A.** > 4 mM (inactive)

**Q.** For `NCc1ccc(-n2cccn2)cc1`, which Kd is on record?
**A.** > 4 mM (inactive)

**Q.** For `O=C1CCC(=O)N1c1cccc([N+](=O)[O-])c1`, which Kd is on record?
**A.** > 4 mM (inactive)

**Q.** With `CC(=O)NC1C(=O)Nc2c(C)cc(C)cc21` (centres undefined) as the compound, how does the Kd read?
**A.** > 4 mM (inactive)

**Q.** With `COc1ccc(S(=O)(=O)Nc2ccccn2)c(C)c1C` as the compound, how does the Kd read?
**A.** > 4 mM (inactive)

**Q.** Which Kd does the source give for `CCn1nnc2c(NCc3ccccn3)ncnc21` here?
**A.** > 4 mM (inactive)

**Q.** Which Kd does the source give for `COC(=O)CC1NC2CCCCC2NC1=O` (centres undefined) here?
**A.** > 4 mM (inactive)

**Q.** Which Kd does the source give for `CSc1ccccc1NC(=O)c1c(C)noc1C` here?
**A.** > 4 mM (inactive)

**Q.** For `CC(=O)Nc1cccc(-c2nnc(-c3ccccc3)o2)c1`, which Kd is on record?
**A.** > 4 mM (inactive)

**Q.** How did the Kd turn out when `Cc1nnc2sc(-c3csc4c3CCCC4)nn12` was run?
**A.** > 4 mM (inactive)

**Q.** With `CC1(C)C2CC[C@]3(C)C(C(=O)C=C4[C@@H]5C[C@@](C)(C(=O)O)CC[C@]5(C)CC[C@]43C)[C@@]2(C)CC[C@@H]1O` (some centres undefined) as the compound, how does the Kd read?
**A.** > 4 mM (inactive)

**Q.** With `CC1(C)O[C@H]2CC(=O)OC[C@]23[C@H]2CC[C@@]4(C)[C@H](c5ccoc5)OC(=O)[C@H]5O[C@]54[C@]2(C)C(=O)C[C@@H]13` as the compound, how does the Kd read?
**A.** > 4 mM (inactive)

**Q.** With `COC(=O)NNc1ncnc(N)c1[N+](=O)[O-]` as the compound, how does the Kd read?
**A.** > 4 mM (inactive)

**Q.** For `O=[N+]([O-])c1ccc(/C=N/c2ncn[nH]2)cc1`, which Kd is on record?
**A.** > 4 mM (inactive)

**Q.** With `Nc1nc(-c2ccc(O)cc2)cs1` as the compound, how does the Kd read?
**A.** > 4 mM (inactive)

**Q.** `CC(NC(=O)c1cccnc1)c1ccc2c(c1)OCO2` (centres undefined) was tested. Which Kd did it give?
**A.** > 4 mM (inactive)

**Q.** With `CC(=O)O[C@H]1C[C@@]2(C)[C@@H](C[C@@H](O)C3[C@]2(C)CC[C@H]2[C@H](C)[C@H](O)CC[C@]32C)/C1=C(/CCC=C(C)C)C(=O)O` (some centres undefined) as the compound, how does the Kd read?
**A.** > 4 mM (inactive)

**Q.** For `Cc1ccc(S(=O)(=O)/N=C2\NC(=O)CS2)cc1`, which Kd is on record?
**A.** > 4 mM (inactive)

**Q.** `Cc1ccc(CCC(N)=O)o1` was tested. Which Kd did it give?
**A.** > 4 mM (inactive)

**Q.** `Cc1cc(C)nc(/N=C(/N)N2CCOCC2)n1` was tested. Which Kd did it give?
**A.** > 4 mM (inactive)

**Q.** How did the Kd turn out when `COc1cc2c(cc1O)CCNC2C` (centres undefined) was run?
**A.** > 4 mM (inactive)

**Q.** For `O=C(O)c1ccc2c(c1)OCCCO2`, which Kd is on record?
**A.** > 4 mM (inactive)

**Q.** Which Kd does the source give for `CCN1CCC(NC2CCC(O)CC2)CC1` (centres undefined) here?
**A.** > 4 mM (inactive)

**Q.** `CCOc1ccc(C)cc1S(=O)(=O)n1ccnc1` was tested. Which Kd did it give?
**A.** > 4 mM (inactive)

**Q.** Which Kd does the source give for `NC(=O)/C=C/C(=O)Nc1ccccc1` here?
**A.** > 4 mM (inactive)

**Q.** With `COc1cc(C)c(Cl)cc1S(=O)(=O)N(C)C` as the compound, how does the Kd read?
**A.** > 4 mM (inactive)

**Q.** With `COC(=O)c1oc2ccc(Cl)cc2c1NC(C)=O` as the compound, how does the Kd read?
**A.** > 4 mM (inactive)

**Q.** `CC(=O)Nc1cccc(-c2nnc3n2CC(C)S3)c1` (centres undefined) was tested. Which Kd did it give?
**A.** > 4 mM (inactive)

**Q.** For `NC1=NC(=O)C(Cc2ccccc2)S1` (centres undefined), which Kd is on record?
**A.** > 4 mM (inactive)
